# According to publication PMC5218480 (PLoS ONE, 2017):
# System: MV-4-11 cells
# Experiment: Gene expression microarray analysis (Affymetrix PrimeView) and GSEA
# Assay type: cell-based, human
# Set-up: RFU PODN (11730768_x_at) / Fold change /veh PODN (11730768_x_at) / RFU LINC00158 (11744669_a_at) / Fold change /veh LINC00158 (11744669_a_at) / RFU DUSP10 (11751237_a_at) / Fold change /veh DUSP10 (11751237_a_at) / RFU ID3 (11757404_x_at) / Fold change /veh ID3 (11757404_x_at) / RFU PLEKHG5 (11737974_s_at) / Fold change /veh PLEKHG5 (11737974_s_at) / RFU LRRC4B (11730491_at) / Fold change /veh LRRC4B (11730491_at) / RFU GIMAP4 (11747438_a_at) / Fold change /veh GIMAP4 (11747438_a_at) / RFU KRT8 (11758183_x_at) / Fold change /veh KRT8 (11758183_x_at) / RFU CNN1 (11734310_a_at) / Fold change /veh CNN1 (11734310_a_at) / RFU VPS37D (11726825_at) / Fold change /veh VPS37D (11726825_at) / RFU C10orf10 (11716522_x_at) / Fold change /veh C10orf10 (11716522_x_at) / RFU KIR2DL2 /// KIR2DL4 /// KIR2DL5A /// KIR2DL5B /// KIR2DS1 /// KIR2DS2 /// KIR2DS3 /// KIR2DS4 /// KIR3DL3 /// KIR3DL3 /// KIR3DS1 (11738374_at) / Fold change /veh KIR2DL2 /// KIR2DL4 /// KIR2DL5A /// KIR2DL5B /// KIR2DS1 /// KIR2DS2 /// KIR2DS3 /// KIR2DS4 /// KIR3DL3 /// KIR3DL3 /// KIR3DS1 (11738374_at) / RFU C1QL1 (11718748_at) / Fold change /veh C1QL1 (11718748_at) / RFU TMPRSS4 (11747572_a_at) / Fold change /veh TMPRSS4 (11747572_a_at) / RFU HAMP (11756126_x_at) / Fold change /veh HAMP (11756126_x_at) / RFU RNFT2 (11725882_a_at) / Fold change /veh RNFT2 (11725882_a_at) / RFU NR4A2 (11747474_a_at) / Fold change /veh NR4A2 (11747474_a_at) / RFU ABCC12 (11746883_a_at) / Fold change /veh ABCC12 (11746883_a_at) / RFU TMEM136 (11760407_x_at) / Fold change /veh TMEM136 (11760407_x_at) / RFU CLDN22 /// WWC2 (11732394_at) / Fold change /veh CLDN22 /// WWC2 (11732394_at) / RFU HLA-DPB1 (11760878_x_at) / Fold change /veh HLA-DPB1 (11760878_x_at) / RFU SPINT1 (11716480_a_at) / Fold change /veh SPINT1 (11716480_a_at) / RFU GAP43 (11754022_s_at) / Fold change /veh GAP43 (11754022_s_at) / RFU A4GNT (11735810_at) / Fold change /veh A4GNT (11735810_at) / RFU PRB3 (11715151_x_at) / Fold change /veh PRB3 (11715151_x_at) / RFU TUBB4B (11761932_at) / Fold change /veh TUBB4B (11761932_at) / RFU CAPN14 (11732068_a_at) / Fold change /veh CAPN14 (11732068_a_at) / RFU TMCC2 (11721928_a_at) / Fold change /veh TMCC2 (11721928_a_at) / RFU IRGQ (11745062_a_at) / Fold change /veh IRGQ (11745062_a_at) / RFU FAM174B (11720279_a_at) / Fold change /veh FAM174B (11720279_a_at) / RFU TMPRSS4 (11748680_a_at) / Fold change /veh TMPRSS4 (11748680_a_at) / RFU FAM212B (11763350_a_at) / Fold change /veh FAM212B (11763350_a_at) / RFU PLEKHG5 (11743358_a_at) / Fold change /veh PLEKHG5 (11743358_a_at) / RFU ZSCAN30 (11745921_a_at) / Fold change /veh ZSCAN30 (11745921_a_at) / RFU CMKLR1 (11741424_a_at) / Fold change /veh CMKLR1 (11741424_a_at) / RFU LOC101060620 /// MAPK8IP1 (11723275_at) / Fold change /veh LOC101060620 /// MAPK8IP1 (11723275_at) / RFU SPTSSB (11747773_x_at) / Fold change /veh SPTSSB (11747773_x_at) / RFU PRSS12 (11739890_at) / Fold change /veh PRSS12 (11739890_at) / RFU BIN1 (11741810_x_at) / Fold change /veh BIN1 (11741810_x_at) / RFU WNT11 (11732464_a_at) / Fold change /veh WNT11 (11732464_a_at) / RFU C10orf10 (11716521_a_at) / Fold change /veh C10orf10 (11716521_a_at) / RFU C5orf56 (11738089_at) / Fold change /veh C5orf56 (11738089_at) / RFU CYB561 (11721691_x_at) / Fold change /veh CYB561 (11721691_x_at) / RFU ANKRD19P (11752326_a_at) / Fold change /veh ANKRD19P (11752326_a_at) / RFU OR2T12 /// OR2T33 /// OR2T8 (11738714_s_at) / Fold change /veh OR2T12 /// OR2T33 /// OR2T8 (11738714_s_at) / RFU VCAN (11748164_a_at) / Fold change /veh VCAN (11748164_a_at) / RFU JSRP1 (11732532_at) / Fold change /veh JSRP1 (11732532_at) / RFU KRTAP10-11 (11738290_x_at) / Fold change /veh KRTAP10-11 (11738290_x_at) / RFU MYO3A (11730013_a_at) / Fold change /veh MYO3A (11730013_a_at) / RFU EBF3 (11725865_a_at) / Fold change /veh EBF3 (11725865_a_at) / RFU CAMK2N1 (11719241_x_at) / Fold change /veh CAMK2N1 (11719241_x_at) / RFU C5orf56 (11738088_a_at) / Fold change /veh C5orf56 (11738088_a_at) / RFU OLFML3 (11715873_a_at) / Fold change /veh OLFML3 (11715873_a_at) / RFU LOC100653217 /// NTM (11731650_a_at) / Fold change /veh LOC100653217 /// NTM (11731650_a_at) / RFU MAPK11 (11762145_a_at) / Fold change /veh MAPK11 (11762145_a_at) / RFU FIZ1 (11724087_x_at) / Fold change /veh FIZ1 (11724087_x_at) / RFU OASL (11726364_x_at) / Fold change /veh OASL (11726364_x_at) / RFU SOX15 (11748057_x_at) / Fold change /veh SOX15 (11748057_x_at) / RFU CD79A (11719716_a_at) / Fold change /veh CD79A (11719716_a_at) / RFU HIST1H1D (11736915_at) / Fold change /veh HIST1H1D (11736915_at) / RFU CASKIN2 (11723855_a_at) / Fold change /veh CASKIN2 (11723855_a_at) / RFU LOC730098 (11760151_x_at) / Fold change /veh LOC730098 (11760151_x_at) / RFU OR4N2 (11742367_at) / Fold change /veh OR4N2 (11742367_at) / RFU PRRT2 (11749266_a_at) / Fold change /veh PRRT2 (11749266_a_at) / RFU SNX32 (11753110_a_at) / Fold change /veh SNX32 (11753110_a_at) / RFU CDHR5 (11726645_a_at) / Fold change /veh CDHR5 (11726645_a_at) / RFU RCAN1 (11760418_a_at) / Fold change /veh RCAN1 (11760418_a_at) / RFU FAM167A (11723789_a_at) / Fold change /veh FAM167A (11723789_a_at) / RFU FAM26E (11764081_at) / Fold change /veh FAM26E (11764081_at) / RFU ISYNA1 (11749810_s_at) / Fold change /veh ISYNA1 (11749810_s_at) / RFU ACY1 (11761880_at) / Fold change /veh ACY1 (11761880_at) / RFU 11764098_at / Fold change /veh 11764098_at / RFU SAMD14 (11745864_x_at) / Fold change /veh SAMD14 (11745864_x_at) / RFU NPB (11741838_a_at) / Fold change /veh NPB (11741838_a_at) / RFU TMPRSS6 (11731388_a_at) / Fold change /veh TMPRSS6 (11731388_a_at) / RFU KRTAP10-2 (11738614_at) / Fold change /veh KRTAP10-2 (11738614_at) / RFU ARHGAP8 /// PRR5-ARHGAP8 (11727945_x_at) / Fold change /veh ARHGAP8 /// PRR5-ARHGAP8 (11727945_x_at) / RFU KRTAP5-7 /// NADSYN1 (11734609_at) / Fold change /veh KRTAP5-7 /// NADSYN1 (11734609_at) / RFU RASL12 (11751679_a_at) / Fold change /veh RASL12 (11751679_a_at) / RFU CDKN2B (11736163_a_at) / Fold change /veh CDKN2B (11736163_a_at) / RFU PRF1 (11729649_at) / Fold change /veh PRF1 (11729649_at) / RFU, ZNF638 /// ZNF638-IT1 / Fold change vs veh, ZNF638 /// ZNF638-IT1 / RFU, PANK3 / Fold change vs veh, PANK3 / RFU, SH3YL1 / Fold change vs veh, SH3YL1 / RFU, ZEB2 / Fold change vs veh, ZEB2 / RFU, NRIP1 / Fold change vs veh, NRIP1 / RFU, PTTG1IP / Fold change vs veh, PTTG1IP / RFU, CAPN2 / Fold change vs veh, CAPN2 / RFU, MED14 / Fold change vs veh, MED14 / RFU, SNORA58 / Fold change vs veh, SNORA58 / RFU, C1orf63 / Fold change vs veh, C1orf63 / RFU, LRRFIP1 / Fold change vs veh, LRRFIP1 / RFU, NDUFAF7 / Fold change vs veh, NDUFAF7 / RFU, SLC12A2 / Fold change vs veh, SLC12A2 / RFU, IBTK / Fold change vs veh, IBTK / RFU, ESF1 / Fold change vs veh, ESF1 / Fold change vs veh, TMEM50B / RFU, TAOK1 / Fold change vs veh, TAOK1 / RFU, ACBD3 / Fold change vs veh, ACBD3 / RFU, TMA16 / Fold change vs veh, TMA16 / RFU, RWDD3 / Fold change vs veh, RWDD3 / RFU, BCAT1 / Fold change vs veh, BCAT1 / RFU, EDEM3 / Fold change vs veh, EDEM3 / RFU, TMEM33 / Fold change vs veh, TMEM33 / RFU, WDR75 / Fold change vs veh, WDR75 / RFU, AHCTF1 / Fold change vs veh, AHCTF1 / RFU, TFRC / Fold change vs veh, TFRC / RFU, ZDHHC17 / Fold change vs veh, ZDHHC17 / RFU, NOM1 / Fold change vs veh, NOM1 / RFU, ARL8B / Fold change vs veh, ARL8B / RFU, ZBTB11 / Fold change vs veh, ZBTB11 / RFU, TAMM41 / Fold change vs veh, TAMM41 / RFU, KIAA1704 /// LOC100996395 / Fold change vs veh, KIAA1704 /// LOC100996395 / RFU, ING1 / Fold change vs veh, ING1 / RFU, TRMT61B / Fold change vs veh, TRMT61B / RFU, FUBP3 / Fold change vs veh, FUBP3 / RFU, TP53 / Fold change vs veh, TP53 / RFU, TNKS2 / Fold change vs veh, TNKS2 / RFU, ZFP14 / Fold change vs veh, ZFP14 / RFU, ACTR2 / Fold change vs veh, ACTR2 / RFU, PPP3R1 / Fold change vs veh, PPP3R1 / RFU, PIK3R1 / Fold change vs veh, PIK3R1 / RFU, HNRNPA1 / Fold change vs veh, HNRNPA1 / RFU, RNF170 / Fold change vs veh, RNF170 / RFU, ZNF28 / Fold change vs veh, ZNF28 / RFU, RNGTT / Fold change vs veh, RNGTT / RFU, OGT / Fold change vs veh, OGT / RFU, BRD1 / Fold change vs veh, BRD1 / RFU, MARS / Fold change vs veh, MARS / RFU, ZNF655 / Fold change vs veh, ZNF655 / RFU, FAHD1 / Fold change vs veh, FAHD1 / RFU, BDP1 / Fold change vs veh, BDP1 / RFU, LRRCC1 / Fold change vs veh, LRRCC1 / RFU, ARID1A / Fold change vs veh, ARID1A / RFU, ZNF146 / Fold change vs veh, ZNF146 / RFU, ZNF330 / Fold change vs veh, ZNF330 / RFU, GPN3 / Fold change vs veh, GPN3 / RFU, C9orf123 / Fold change vs veh, C9orf123 / RFU, N4BP2L2 / Fold change vs veh, N4BP2L2 / RFU, ARFIP1 / Fold change vs veh, ARFIP1 / RFU, FAM179B / Fold change vs veh, FAM179B / RFU, BCL10 / Fold change vs veh, BCL10 / RFU, UHRF1BP1L / Fold change vs veh, UHRF1BP1L / RFU, BET1 / Fold change vs veh, BET1 / RFU, CNOT2 / Fold change vs veh, CNOT2 / RFU, ZNF268 / Fold change vs veh, ZNF268 / Fold change vs veh, ZNF507 / RFU, DGCR2 / Fold change vs veh, DGCR2 / RFU, WDSUB1 / Fold change vs veh, WDSUB1 / Fold change vs veh, HSP90B1 /// MIR3652 / RFU, ADSS / Fold change vs veh, ADSS / RFU, GK / Fold change vs veh, GK / RFU, ZNF148 / Fold change vs veh, ZNF148 / RFU, TAF9 / Fold change vs veh, TAF9 / RFU, SLC1A5 / Fold change vs veh, SLC1A5 / RFU, SLMO2 / Fold change vs veh, SLMO2 / RFU, ABCC4 / Fold change vs veh, ABCC4 / RFU, LOC101060439 /// RAP1B / Fold change vs veh, LOC101060439 /// RAP1B / RFU, RFX7 / Fold change vs veh, RFX7 / RFU, GTPBP10 / Fold change vs veh, GTPBP10 / RFU, CNEP1R1 / Fold change vs veh, CNEP1R1 / RFU, BIVM-ERCC5 /// ERCC5 / Fold change vs veh, BIVM-ERCC5 /// ERCC5 / RFU, ILF3 / Fold change vs veh, ILF3 / RFU 11762660_at / Fold change /veh 11762660_at / RFU VCAN (11757783_s_at) / Fold change /veh VCAN (11757783_s_at) / RFU DDX43 (11728927_at) / Fold change /veh DDX43 (11728927_at) / RFU KRT8 (11758188_x_at) / Fold change /veh KRT8 (11758188_x_at) / RFU NKD1 (11759106_at) / Fold change /veh NKD1 (11759106_at) / RFU SRD5A1 (11742802_a_at) / Fold change /veh SRD5A1 (11742802_a_at) / RFU TPSAB1 /// TPSB2 (11721975_s_at) / Fold change /veh TPSAB1 /// TPSB2 (11721975_s_at) / RFU GSTM3 (11746129_a_at) / Fold change /veh GSTM3 (11746129_a_at) / RFU IL23R (11737362_x_at) / Fold change /veh IL23R (11737362_x_at) / RFU TMEM51 (11727254_a_at) / Fold change /veh TMEM51 (11727254_a_at) / RFU PIWIL2 (11732686_x_at) / Fold change /veh PIWIL2 (11732686_x_at) / RFU ORM1 (11744905_x_at) / Fold change /veh ORM1 (11744905_x_at) / RFU CCDC152 (11743942_at) / Fold change /veh CCDC152 (11743942_at) / RFU ECM1 (11717891_a_at) / Fold change /veh ECM1 (11717891_a_at) / RFU IL23R (11748794_a_at) / Fold change /veh IL23R (11748794_a_at) / RFU TNFAIP8L3 (11732012_x_at) / Fold change /veh TNFAIP8L3 (11732012_x_at) / RFU MBOAT4 (11741988_at) / Fold change /veh MBOAT4 (11741988_at) / RFU 11764193_at / Fold change /veh 11764193_at / RFU TMEM53 (11763286_at) / Fold change /veh TMEM53 (11763286_at) / RFU MAGEB2 (11727129_at) / Fold change /veh MAGEB2 (11727129_at) / RFU TMEM200A (11744735_a_at) / Fold change /veh TMEM200A (11744735_a_at) / RFU CCDC152 (11751479_a_at) / Fold change /veh CCDC152 (11751479_a_at) / RFU FAM211A (11726209_a_at) / Fold change /veh FAM211A (11726209_a_at) / RFU RGS16 (11746705_a_at) / Fold change /veh RGS16 (11746705_a_at) / RFU VCAN (11755009_s_at) / Fold change /veh VCAN (11755009_s_at) / RFU RHOB (11743442_s_at) / Fold change /veh RHOB (11743442_s_at) / RFU RGS16 (11720943_a_at) / Fold change /veh RGS16 (11720943_a_at) / RFU RGS16 (11720944_at) / Fold change /veh RGS16 (11720944_at) / RFU, VPS4B / Fold change vs veh, VPS4B / RFU, CREB1 / Fold change vs veh, CREB1 / RFU, DNAJC13 / Fold change vs veh, DNAJC13 / RFU, GNAQ / Fold change vs veh, GNAQ / RFU, CDK5R1 / Fold change vs veh, CDK5R1 / RFU, ZRANB3 / Fold change vs veh, ZRANB3 / RFU, CUL4A / Fold change vs veh, CUL4A / RFU, CCNY / Fold change vs veh, CCNY / RFU, UFL1 / Fold change vs veh, UFL1 / RFU, COG3 / Fold change vs veh, COG3 / RFU, DIAPH2 / Fold change vs veh, DIAPH2 / RFU, SKA2 / Fold change vs veh, SKA2 / RFU, AFF3 / Fold change vs veh, AFF3 / RFU, LMF1 / Fold change vs veh, LMF1 / RFU, IPO11 / Fold change vs veh, IPO11 / RFU, DFFB / Fold change vs veh, DFFB / RFU, FOXP1 / Fold change vs veh, FOXP1 / RFU, CARD8 / Fold change vs veh, CARD8 / RFU, STRN3 / Fold change vs veh, STRN3 / RFU, ADK / Fold change vs veh, ADK / RFU, RASSF2 / Fold change vs veh, RASSF2 / RFU, WIPF1 / Fold change vs veh, WIPF1 / RFU, LARP1B / Fold change vs veh, LARP1B / RFU, RASA1 / Fold change vs veh, RASA1 / RFU, RB1 / Fold change vs veh, RB1 / RFU, PPFIA1 / Fold change vs veh, PPFIA1 / RFU, MAT2A / Fold change vs veh, MAT2A / RFU, CCT5 / Fold change vs veh, CCT5 / RFU, WDR92 / Fold change vs veh, WDR92 / RFU, CUX1 / Fold change vs veh, CUX1 / RFU, TTC7A / Fold change vs veh, TTC7A / RFU, TMEM135 / Fold change vs veh, TMEM135 / RFU, DEPTOR / Fold change vs veh, DEPTOR / RFU, CPM / Fold change vs veh, CPM / RFU, DNAJB6 / Fold change vs veh, DNAJB6 / RFU, CACNA2D3 / Fold change vs veh, CACNA2D3 / RFU, DTX4 / Fold change vs veh, DTX4 / RFU, TFCP2 / Fold change vs veh, TFCP2 / RFU, GMCL1 /// GMCL1P1 / Fold change vs veh, GMCL1 /// GMCL1P1 / RFU, AEBP2 / Fold change vs veh, AEBP2 / RFU, SNHG1 /// SNORD22 /// SNORD25 /// SNORD26 /// SNORD27 /// SNORD28 /// SNORD29 /// SNORD31 / Fold change vs veh, SNHG1 /// SNORD22 /// SNORD25 /// SNORD26 /// SNORD27 /// SNORD28 /// SNORD29 /// SNORD31 / Fold change (Aza/veh), C12orf56 (ProbeSet 11735607_a_at) / Fold change (ACY-1035/veh), C12orf56 (ProbeSet 11735607_a_at) / Fold change (Aza/veh), FGFR1OP (ProbeSet 11751329_s_at) / Fold change (ACY-1035/veh), FGFR1OP (ProbeSet 11751329_s_at) / Fold change (Aza/veh), VPS36 (ProbeSet 11739960_a_at) / Fold change (ACY-1035/veh), VPS36 (ProbeSet 11739960_a_at) / RFU SYPL1 (11715823_x_at) / Fold change /veh SYPL1 (11715823_x_at) / RFU IGFBP7 (11715501_s_at) / Fold change /veh IGFBP7 (11715501_s_at) / RFU REEP3 (11722064_at) / Fold change /veh REEP3 (11722064_at) / RFU IGLL1 (11728026_x_at) / Fold change /veh IGLL1 (11728026_x_at): dose or concentration left out as unconfirmed
# Conditions: MV-4-11 cells, 48 hours
structure (smiles),measurement,value
Nc1ncn([C@@H]2O[C@H](CO)[C@@H](O)[C@H]2O)c(=O)n1 [azacitidine],RFU HAMP (11756126_x_at),317.78 RFU
